Laboratory results taken from patent US10189826B2, “Heterocyclic compounds and methods of use” (Medivation Technologies LLC, priority 2015, dated 2019).
Counter-ions that a name gives are not always drawn. Like-named read-outs stand apart in the source and are kept apart here.

Assays:
Type in all cases: cell-based
HepG2_LSSprom cells = experiment: Cytotoxicity assay (LDH release) in HepG2_LSSprom cells; conditions: for Cytotoxicity (5 μM) %: LDH release relative to lysis control
Outline: (§1)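 HepG2_LSSprom cells exposed to compound at 0.625–10 μM in serum-free medium for 6 h or 24 h. Medium LDH measured colorimetrically at 490 nm; release expressed as % of lysis control after vehicle subtraction, negatives set to 0; five independent experiments, triplicate wells, mean±SEM.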

[1] = system: SREBP-2 transcriptional activity (SREBP2 cleavage) in HepG2_LSSprom cells; experiment: Luciferase reporter driven by a SREBP-2 specific promoter in HepG2_LSSprom cells; conditions: for IC50: read-out: SREBP2 Cleavage (IC50 μM) 24 h; for SREBP2 Cleavage (5 μM) (% Inh): medium without FBS
Outline: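 HepG2_LSSprom cells dosed at 0.625-10 μM in serum-free medium for 6 h (or 24 h), then luciferase luminescence read. Signal normalized to vehicle (100%); IC50 by four-parameter nonlinear fit; five independent experiments, triplicate wells.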

HepG2 cells = experiment: Cell viability in HepG2 cells (MTS); conditions: 20 μM, 3 days, DMEM without FBS
Experimental: For viability measurements, HepG2 cells were seeded at 5,000 cells per well in 96-well plates in DMEM supplemented with 10% FBS. After 1 day in culture, cells were treated with compounds (20 μM) for 3 days in DMEM without FBS. Viability was measured by MTS. Treatment with compounds was carried out in medium without FBS, and viability was measured by MTS.

[2] = system: SREBP2 cleavage in HEPG2 cells; experiment: SREBP2 cleavage in HEPG2 cells (Western blot normalized to actin); conditions: 20 μM, 1 day, DMEM without FBS
Experimental: Average SREBP2 cleavage in HEPG2 cells was measured in the presence of compounds disclosed in Table 1. HepG2 cells were seeded at 500,000 cells per well in 6-well plates in DMEM supplemented with 10% FBS. After 2 days, cells were treated with compounds (20 μM) for 1 day in DMEM without FBS. Western blots were normalized with respect to actin.

[3] = Cytotoxicity assay (LDH release) in HepG2_LSSprom cells; conditions: human, HepG2 LSSprom cells, 24 h treatment, LDH release
Outline: as §1

[4] = 24 h, 24 h treatment, HepG2_LSSprom cells

| Structure (SMILES) | IC50 at 24 h [3] | IC50 [1, 4] | also measured |
| --- | --- | --- | --- |
| CC1(N)CCCN(C(=O)c2ccc(-c3cc(-c4ccnc(C(C)(C)C)c4)cs3)c(Cl)c2)C1 (single isomer, unassigned) [Compound 95b] |  |  | IC50 (HepG2_LSSprom cells; 24 h treatment, LDH release): > 10 µM; IC50 ([1]; 24 h treatment, HepG2_LSSprom cells): 0.65 µM |
| CCCc1cc(-c2nc(-c3ccc(C(=O)N(C)C)cc3)cs2)ccn1 [Compound 2, N,N-dimethyl-4-[2-(2-propylpyridin-4-yl)-1,3-thiazol-4-yl]benzamide] |  |  | Average Viability (% Inhibition, n = 3) (HepG2 cells): 30.73 % Inhibition; Average SREBP2 cleavage (% Inhibition, n = 3) [2]: 73.85 % Inhibition |
| CCCc1cc(-c2nc(-c3ccc(C(N)=O)cc3)cs2)ccn1 [Compound 3, 4-[2-(2-propylpyridin-4-yl)-1,3-thiazol-4-yl]benzamide] |  |  | Average Viability (% Inhibition, n = 3) (HepG2 cells): 19.52 % Inhibition; Average SREBP2 cleavage (% Inhibition, n = 3) [2]: 12.18 % Inhibition |
| O=C(c1ccc(-c2csc(-c3cccc4[nH]ccc34)n2)c(Cl)c1)N1CCCCC1 [Compound 4, [3-chloro-4-[2-(1H-indol-4-yl)thiazol-4-yl]phenyl]-(1-piperidyl)methanone] |  |  | Cytotoxicity (5 μM) % (HepG2_LSSprom cells): 1%; SREBP2 Cleavage (5 μM) (% Inh) ([1]; HepG2_LSSprom cells): 48 % Inh |
| CC(C)(C)c1cc(-c2nc(-c3ccc(C(=O)N4CCCCC4)cc3Cl)cs2)ccn1 [Compound 5, 2-tert-butyl-4-{4-[2-chloro-4-(piperidine-1-carbonyl)phenyl]-1,3-thiazol-2-yl}pyridine] |  |  | Cytotoxicity (5 μM) % (HepG2_LSSprom cells): 4%; SREBP2 Cleavage (5 μM) (% Inh) ([1]; HepG2_LSSprom cells): 71 % Inh |
| CN(C)C(=O)c1ccc(-c2csc(-c3cccc4[nH]ccc34)n2)c(Cl)c1 [Compound 6, 3-chloro-4-[2-(1H-indol-4-yl)-1,3-thiazol-4-yl]-N,N-dimethylbenzamide] |  |  | Cytotoxicity (5 μM) % (HepG2_LSSprom cells): 0%; SREBP2 Cleavage (5 μM) (% Inh) ([1]; HepG2_LSSprom cells): 41 % Inh |
| CN(C)C(=O)c1ccc(-c2csc(-c3ccnc(N4CCCCC4)c3)n2)c(Cl)c1 [Compound 9, 3-chloro-N,N-dimethyl-4-{2-[2-(piperidin-1-yl)pyridin-4-yl]-1,3-thiazol-4-yl}benzamide] |  |  | Cytotoxicity (5 μM) % (HepG2_LSSprom cells): 1%; SREBP2 Cleavage (5 μM) (% Inh) ([1]; HepG2_LSSprom cells): 52 % Inh |
| CC(C)(C)c1cc(-c2csc(-c3ccc(C(=O)N4CCC[C@@H](O)C4)cc3Cl)c2)ccn1 [Compound 89a, (R)-(4-(4-(2-(tert-butyl)pyridin-4-yl)thiophen-2-yl)-3-chlorophenyl)(3-hydroxypiperidin-1-yl)methanone] | > 10 µM | 0.03 µM |  |
| CC(C)(C)c1cc(-c2csc(-c3ccc(C(=O)N4CCC[C@H](O)C4)cc3Cl)c2)ccn1 [Compound 89b, (S)-(4-(4-(2-(tert-butyl)pyridin-4-yl)thiophen-2-yl)-3-chlorophenyl)(3-hydroxypiperidin-1-yl)methanone] | > 10 µM | 0.02 µM |  |
| CC(C)(C)OC(=O)NC1CCN(C(=O)c2ccc(-c3csc(-c4ccnc(C(C)(C)C)c4)c3)c(Cl)c2)C1 (stereo not shown) [Compound 90] | > 10 µM | 0.37 µM |  |
| CC(C)(C)c1cc(-c2csc(-c3ccc(C(=O)N4CCCC(C(=O)O)C4)cc3Cl)c2)ccn1 (stereo not shown) [Compound 91] | > 10 µM | 0.72 µM |  |
| CC(C)(C)c1cc(-c2csc(-c3ccc(C(=O)N4CCc5nc[nH]c5C4)cc3Cl)c2)ccn1 [Compound 92, 2-tert-butyl-4-[5-(2-chloro-4-{3H,4H,5H,6H,7H-imidazo[4,5-c]pyridine-5-carbonyl}phenyl)thiophen-3-yl]pyridine] | > 10 µM | 0.74 µM |  |
| CC(C)(C)c1cc(-c2csc(-c3ccc(C(=O)N4CCNC(=O)C4)cc3Cl)c2)ccn1 [Compound 93, 4-{4-[4-(2-tert-butylpyridin-4-yl)thiophen-2-yl]-3-chlorobenzoyl}piperazin-2-one] | > 10 µM | 0.41 µM |  |
| CC(C)(C)c1cc(-c2csc(-c3ccc(C(=O)N4CCCC(N5CCNC5=O)C4)cc3Cl)c2)ccn1 (stereo not shown) [Compound 94, 1-[1-{4-[4-(2-tert-butylpyridin-4-yl)thiophen-2-yl]-3-chlorobenzoyl}piperidin-3-yl]imidazolidin-2-one] | > 10 µM | 0.52 µM |  |
| CC1(N)CCCN(C(=O)c2ccc(-c3cc(-c4ccnc(C(C)(C)C)c4)cs3)c(Cl)c2)C1 (stereo not shown) [Compound 95, 1-{4-[4-(2-tert-butylpyridin-4-yl)thiophen-2-yl]-3-chlorobenzoyl}-3-methylpiperidin-3-amine] | > 10 µM | 0.42 µM |  |
| CC(C)(C)c1cc(-c2csc(-c3ccc(C(=O)N4CC[C@@H](N)C4)cc3Cl)c2)ccn1 [Compound 96a, (3R)-1-{4-[4-(2-tert-butylpyridin-4-yl)thiophen-2-yl]-3-chlorobenzoyl}pyrrolidin-3-amine] | > 10 µM | 1.4 µM |  |
| CC(C)(C)c1cc(-c2csc(-c3ccc(C(=O)N4CC[C@H](N)C4)cc3Cl)c2)ccn1 [Compound 96b, (3S)-1-{4-[4-(2-tert-butylpyridin-4-yl)thiophen-2-yl]-3-chlorobenzoyl}pyrrolidin-3-amine] | > 10 µM | 0.6 µM |  |
| CC(C)(C)c1cc(-c2csc(-c3ccc(C(=O)N4CCCc5ncccc54)cc3Cl)c2)ccn1 [Compound 97, 1-{4-[4-(2-tert-butylpyridin-4-yl)thiophen-2-yl]-3-chlorobenzoyl}-1,2,3,4-tetrahydro-1,5-naphthyridine] | > 3 µM | 0.17 µM |  |
| CC(C)(C)c1cc(-c2nc(-c3ccc(C(=O)N4CCC(O)CC4)cc3Cl)c[nH]2)ccn1 [Compound 98, 1-{4-[2-(2-tert-butylpyridin-4-yl)-1H-imidazol-4-yl]-3-chlorobenzoyl}piperidin-4-ol] | > 10 µM |  | IC50 ([1]; 24 h): 0.99 µM |
| COC1CCCN(C(=O)c2ccc(-c3cc(-c4ccnc(C(C)(C)C)c4)cs3)c(Cl)c2)C1 (stereo not shown) [Compound 99, 2-tert-butyl-4-{5-[2-chloro-4-(3-methoxypiperidine-1-carbonyl)phenyl]thiophen-3-yl}pyridine] | > 10 µM |  | IC50 ([1]; 24 h): 0.051 µM |
| CC1(O)CCN(C(=O)c2ccc(-c3cc(-c4ccnc(C(C)(C)C)c4)cs3)c(Cl)c2)CC1 [Compound 100, 1-{4-[4-(2-tert-butylpyridin-4-yl)thiophen-2-yl]-3-chlorobenzoyl}-4-methylpiperidin-4-ol] | > 10 µM | 0.74 µM |  |
| CC(C)(C)c1cc(-c2csc(-c3ccc(C(=O)N4CCC[C@](C)(O)C4)cc3Cl)c2)ccn1 [Compound 101a, [4-[4-(2-tert-butyl-4-pyridyl)-2-thienyl]-3-chloro-phenyl]-[(3S)-3-hydroxy-3-methyl-1-piperidyl] methanone hydrochloride] | > 10 µM | 0.15 µM |  |
| CC(C)(C)c1cc(-c2csc(-c3ccc(C(=O)N4CCC[C@](C)(O)C4)cc3Cl)c2)ccn1 [Compound 101b, (3S)-1-{4-[4-(2-tert-butylpyridin-4-yl)thiophen-2-yl]-3-chlorobenzoyl}-3-methylpiperidin-3-ol] | > 10 µM | 0.025 µM |  |
| CC(C)CCn1nccc1-c1cc(-c2ccc(C(=O)N3CCOCC3)cc2Cl)cs1 [Compound 102, [3-chloro-4-[5-(2-isopentylpyrazol-3-yl)-3-thienyl]phenyl]-morpholino-methanone] | > 10 µM | 0.44 µM |  |
| CC(C)CCn1nccc1-c1cc(-c2ccc(C(=O)N3CCC(F)(F)CC3)cc2Cl)cs1 [Compound 103, [3-chloro-4-[5-(2-isopentylpyrazol-3-yl)-3-thienyl]phenyl]-(4,4-difluoro-1-piperidyl)methanone] | > 10 µM | 0.69 µM |  |
| CC(C)CCn1nccc1-c1csc(-c2ccc(C(=O)N3CCCC(O)C3)cc2Cl)c1 (stereo not shown) [Compound 104, [3-chloro-4-[4-(2-isopentylpyrazol-3-yl)-2-thienyl]phenyl]-(3-hydroxy-1-piperidyl)methanone] | > 10 µM | 0.13 µM |  |
